The results in this text go back to patent US20020090619A1, “Methods for identifying mitochondrial divalent cation transporters” (priority 2000, published 2002).

Structures are written as SMILES.

Assay [1] relates to yeast mitochondria. Description: Membrane potential ΔΨ of isolated yeast mitochondria (safranin O). The settings on record: BSA absent. It is filed as biochemical, Saccharomyces cerevisiae. The method, then: The yeast strain W303-1A (Saccharomyces cerevisiae) was grown aerobically at 30° C. in a medium containing 2% lactate, 1% yeast extract, 2% peptone, 0.05% dextrose, and 0.01% adenine at pH 5.0, and cells were harvested during the logarithmic phase (A600=1.8−2.2). Mitochondria were isolated from spheroplasts as previously described (Jung et al., 1997 J. Biol. Chem. 272:21104), except that 0.6 M sucrose was used in the homogenization medium instead of 0.6 M mannitol (Daum et al., 1982 J. Biol. Chem. 257:13028). The resulting preparations were maintained on ice and were suspended in 0.6 M mannitol 20 mM HEPES (K+) (pH 6.8), containing 0.75 mg/ml BSA and 0.1 mM EGTA. Protein concentration was determined by a reduced volume Biuret method in which 50 μl of the final preparation were solubilized by adding an equal volume of 10% deoxycholate (Na+), with 0.4 ml of Biuret reagent added to the resulting mixture. BSA was employed as the standard.
Unless otherwise noted, mitochondria were incubated at 1 mg protein/ml and at approximately 25° C. in a medium that contained 0.6 M mannitol, 10 mM Pi (K+), 10 mM Hepes (TEA+), pH 7.2, plus 1 mM ethanol as an oxidizable substrate. Compounds having a low solubility in water were added from stock solutions prepared in methanol or DMSO. Ca2+ transport and membrane potential were monitored using the indicating dyes antipyrylazo III (ΔA720-790) and safranin O (ΔA511-533), respectively (Akerman et al., 1976 FEBS Lett. 68:191; Scarpa et al., 1978 Biochem. 17:1378). An SLM Aminco DW-2C spectrophotometer operated in the dual wavelength mode was employed for these purposes. The same instrument, operated in split beam mode, was used to monitor mitochondrial swelling as a decrease in apparent absorbance of mitochondrial suspensions at 540 nm. Oxygen consumption data were obtained using a Clark-type electrode in parallel experiments. Atomic absorption spectroscopy was utilized to monitor the transport of other cations by yeast mitochondria. Briefly, samples were taken at appropriate times and the mitochondria were rapidly sedimented in a microcentrifuge. After carefully removing supernatants, the pellets were solubilized with 2 N percholoric acid (overnight) and centrifuged a second time. The resulting supernatants were diluted with an appropriate volume of distilled water and the concentration of the cation in question was subsequently determined.

Assay [2] deals with intact yeast. Description: Aequorin luminescence in intact yeast cells expressing mitochondrially targeted aequorin. It is filed as cell-based, Saccharomyces cerevisiae. The method, then:
Yeast cells (strain X4003-5B; leu2, ade1, his4, met2, ura3, trp5, gal1) obtained from the Yeast Genetic Stock Center (Berkeley, Calif.) were transformed with the pYES2 plasmid, encoding the human mitochondrially targeted apoaequorin fragment, using the lithium acetate method (Sambrook et al., 1989), and INVSc1 cells were transformed with the pGK plasmid encoding the yeast mitochondrially targeted apoaequorin fragment. Selection was carried out on plates prepared with synthetic complete medium minus uracil (SC-U) (Sherman, 1991 Meths. Enzymol. 194:3). Transformed colonies were cultured in a small volume of SC-U and assayed for aequorin activity in vitro as described by Nakajima et al. (1991 Proc. Nat. Acad. Sci. USA 88:6878). Briefly, the cells were harvested by centrifugation, resuspended in lysis buffer (50 mM Tris, 2 mM EDTA, 0.5 mM PMSF, pH 8 w/NaOH), disrupted by vortexing with glass beads, and then treated with 0.1% Triton X-100 to release apoaequorin from the mitochondria. Following centrifugation, 200 μl aliquots of the supernatants were incubated with coelenterazine (2.5 μM) and 2-mercaptoethanol (2 μl), for ˜3 hr while standing on ice, to form the luminescent aequorin from its apoprotein. The coelenterazine cofactor is highly hydrophobic and readily permeates yeast cell membranes (Nakajima et al., 1991) such that reconstitution was conducted without disrupting the cells in some cases. 2-mercaptoethanol was omitted when intact cells were employed. A transformant which yielded high luminescence (named X4003-5B-AEQmito1) was selected for further characterization.
For preculture, the transformant was inoculated into 50 ml of SC-U plus 2% glucose, and incubated in an air shaker at 180 rpm and 30° C. At 24 hr, the preculture was transferred to 500 ml of a medium containing 1% yeast extract, 2% peptone, 2% lactate, 1% galactose, 0.012% adenine, pH 5 w/NaOH, and growth was continued under conditions which were otherwise the same. […]
Luminescence measurements were carried out in 6×50 mm culture tubes, using a total volume of 0.3 ml, and were started by injection of 5-20 μl of mitochondria or cells. […] For each value, the ratio of observed luminescence (L) to the potential luminescence remaining (Lmax) was calculated, and compared to a calibration curve which relates this ratio to the free Ca^2+ concentration. […] The total luminescence available initially (Ltotal) must be known and was determined in separate experiments, wherein a saturating Ca^2+ concentration (20 μM) is employed to discharge the aequorin completely. This value allows Lmax to be calculated at any time, as Ltotal minus the sum of luminescence that already occurred. […]

In the case of `O=C(COCC(=O)N(C1CCCCC1)C1CCCCC1)N(C1CCCCC1)C1CCCCC1` [ETH 129], in assay [1] (CaCl2 plus ionophore, FIG. 11C), the “effect on ΔΨ, ionophore together with Ca2+” value is given as “sustained reduction”. For the same compound, in assay [1] (FIG. 11B), the “effect on ΔΨ, agent alone” value is “little effect”. Also, in assay [2] (6.5 μM ETH 129, FIG. 19A), the “discharge of aequorin in intact cells” value is reported as “discharge of essentially all of the aequorin”. Besides, in assay [2] (6.5 μM ETH 129, cells oxidizing ethanol, 14 mM CaCl2, FIG. 20), the “rise of mitochondrial Ca2+ concentration in response to ionophore” value is given as 6 fold.
